Data: article PMC8621770, “New Compounds with Bioisosteric Replacement of Classic Choline Kinase Inhibitors Show Potent Antiplasmodial Activity” (Pharmaceutics, 2021)
Counter-ions that a name gives are not always drawn. Like-named read-outs stand apart in the source and are kept apart here.

Experiments:
[1] = tested on: P. falciparum strain 3D7; test: Antimalarial activity, P. falciparum lactate dehydrogenase growth inhibition assay; type: cell-based, Plasmodium falciparum; conditions: for fold decrease in antimalarial activity with respect to the reference compounds BR-23 / BR-25: Fg-9, Fa-21, Fg-14 vs BR-23, Ff-1, Ff-7, Ff-3 vs BR-25; for IC50: P. falciparum 3D7 in human erythrocytes, 72 h, LDH readout, read-out: IC50 a (In vitro IC50 values against P. falciparum); for fold decrease of antimalarial activity with respect to RSM932A: relative to RSM932A; for fold decrease in parasite lethality with respect to BR-31: relative to homologous BR-31
Protocol: Parasites of the P. falciparum strain 3D7 were grown in fresh group 0 positive human erythrocytes, obtained from the Centro Regional de Transfusion Sanguínea-SAS (Granada, Spain) and suspended at 5% haematocrit in RPMI 1640 containing 2% human serum, 0.2% NaHCO3, 0.5% Albumax II, 150 μM hypoxanthine, and […] gentamicin. Flasks were incubated at 37 °C, under 5% CO2 and 95% air mixture. […] The stock culture was then diluted with complete medium and non-parasitized erythrocytes to yield a haematocrit of 2% and parasitemia of 0.25%. Stock solutions of the test drugs were prepared at an initial concentration of 200 mM in DMSO, serially diluted and dispensed into triplicate in 96-well plates to yield final concentrations ranging from 0.0039 to 2 μM. The final well volume was 200 μL with a final concentration of DMSO 0.001%. Each plate also included positive growth controls, where only medium were added, and negative growth controls with 100 nM of chloroquine. […] A multidrop dispenser was used to add 50 μL of synchronized parasite culture per well. After 72 h of growth in presence of test compounds, the plates were stored frozen at −20 °C for at least 24 h. Next, they were thawed at room temperature. Parasite growth inhibition assays and IC50 determinations were carried out following the P. falciparum lactate dehydrogenase assay where parasite viability is quantified by measuring LDH activity upon APAD+ addition, a cofactor that is specific to the Plasmodium enzyme. To evaluate LDH activity, 140 μL of freshly made reaction mix, containing 143 mM sodium L-lactate, 143 μM APAD, 178.75 μM NBT, 1 U/mL diaphorase, 0.7% Tween 20 and 100 mM Tris-HCl (pH 8.0) were dispensed into plates. After 10 min of incubation in the dark at room temperature, absorbance was measured at 630 nm with a vmax precision multiwell plate reader from Molecular Devices, by using the accompanying SOFT maxPro software for analysis.

[2] = biological target: T1, PfCK (Plasmodium falciparum, UniProt Q8IM71); test: Spectrophotometric coupled enzymatic assay for PfCK activity (substrate choline); type: biochemical; conditions: for IC50: IC50 PfCK b (compound concentration required to inhibit PfCK enzyme by 50%), substrate choline 4 mM, ATP 2 mM
T1 construct: A truncated form of PfCK (Δ79-440) featuring an N-terminal 6× His-tag; 6xHis (N); host or cells: Escherichia coli BL21 (DE3) Star
Protocol: A truncated form of PfCK (Δ79-440) featuring an N-terminal 6× His-tag was purchased from Genescript (Piscataway, NJ, USA), cloned into a pET-28a vector and transformed into Escherichia coli BL21 (DE3) Star cells (Invitrogen, Carlsbad, CA, USA). The transformed bacteria were cultured in Luria-Bertani (LB) medium at 37 °C until OD600 = 0.6 and the expression was induced with 1 mM isopropyl β-D-1-thiogalactopyranoside (IPTG). The cell culture was grown overnight at 20 °C and 180 rpm. Cells were pelleted by centrifugation at 10,000 rpm, resuspended in 50 mM Tris/HCl pH 7.5, 500 mM NaCl, 0.2 mM phenylmethylsulphonyl fluoride (PMSF, Sigma Aldrich, St. Luis, MO, USA), DNase (Sigma Aldrich, St. Luis, MO, USA), 0.5 mM β-mercaptoethanol (Sigma Aldrich, St. Luis, MO, USA) and sonicated. Separation of the soluble from the insoluble fraction was obtained by centrifugation at 15,000 rpm and 4 °C. The target enzyme was purified by a two-step purification protocol. In the first step, the cell lysate was incubated for 45 min with Ni-NTA resin (Qiagen, Venlo, The Netherlands) in a gravity column. Then, the column was washed with 40 column volumes (CV) of 50 mM Tris/HCl pH 7.5, 300 mM NaCl, 10 mM imidazole and 1 CV of 50 mM Tris/HCl pH 7.5, 300 mM NaCl, 40 mM imidazole. Finally, the His-tagged enzyme was eluted from the column using a 50 mM Tris/HCl pH 7.5, 300 mM NaCl, 400 mM imidazole buffer. A subsequent size-exclusion chromatography step was implemented to further polish the sample using a HiPrep 26/60 Sephacryl 100 HR column (GE Healthcare, Little Chalfont, Buckinghamshire, UK) previously equilibrated with 20 mM Tris/HCl pH 7.5, 150 mM NaCl buffer. This second purification step afforded a pure protein sample. The protein production yield was estimated to be nearly 2.5 mg of recombinant enzyme per liter of bacterial culture.
A spectrophotometric 96-well plate assay for PfCK activity was established based on an assay previously described. The reaction mix was composed as follows: 100 mM Tris/HCl pH 7.5, 100 mM KCl, 10 mM MgCl2, 0.5 mM phosphoenolpyruvate, 0.25 mM NADH, 4 U of pyruvate kinase, 5 U lactate dehydrogenase, 2 mM ATP, 4 mM choline chloride and different concentrations of the selected compounds. All the necessary compounds for the assay were purchased from Sigma Aldrich (St. Luis, MO, USA) and the final assay volume was 200 μL. The enzymatic reaction was initiated by the addition of the enzyme at less than 10 nM concentration and the reaction rates were measured by monitoring the decrease in the absorbance at 340 nm for 20 min at room temperature using a Spark10M instrument (Tecan). Finally, the IC50 values for each compound were determined by plotting the enzyme fractional activity (f.a.) against the logarithm of compound concentration (log[I]). Curve-fitting was performed with a dose-response curve from Origin (OriginLab Corporation, Northampton, MA, USA), using the following equation: f.a.=1/1+10^logIC50−logI
All data points were collected in triplicate and the final dose-response curves were plotted with MATLAB (R2018a (9.4.0.813654), 2018, MathWorks, Natick, MA, USA). See curves in Figure S1 in Supplementary Materials.

[3] = Plasmodium falciparum, Erythrocyte
[4] = read-out: PfCK Fractional Activity at 25 µM

T1 sequence (Q8IM71 entry or part of it): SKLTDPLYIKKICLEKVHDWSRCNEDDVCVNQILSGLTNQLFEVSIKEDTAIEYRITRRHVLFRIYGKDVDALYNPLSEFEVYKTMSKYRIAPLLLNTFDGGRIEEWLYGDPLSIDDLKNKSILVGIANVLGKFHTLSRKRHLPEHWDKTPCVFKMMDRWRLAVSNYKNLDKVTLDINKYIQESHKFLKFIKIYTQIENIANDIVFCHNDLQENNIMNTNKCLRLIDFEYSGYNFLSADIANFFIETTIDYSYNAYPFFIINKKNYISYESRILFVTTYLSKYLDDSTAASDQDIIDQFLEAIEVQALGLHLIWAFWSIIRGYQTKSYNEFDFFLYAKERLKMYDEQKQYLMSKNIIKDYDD

| melting point [°C] | Structure (SMILES) | IC50 [1, 3] [nM] | remaining activity at 25 µM [2, 4] [%] | further results |
| --- | --- | --- | --- | --- |
| 282 to 284 | [Br-].[Br-].c1cc2c(N3CCCCC3)nc[n+](Cc3ccc(CCCCc4ccc(C[n+]5cnc(N6CCCCC6)c6ccsc65)cc4)cc3)c2s1 | – | – | – |
| 312 to 315 | [Br-].[Br-].c1cc2c(s1)c(N1CCCC1)nc[n+]2Cc1ccc(-c2ccc(C[n+]3cnc(N4CCCC4)c4sccc43)cc2)cc1 [Fa-21, 1,1’-([1,1’-biphenyl]-4,4’-diylbis(methylene))bis(4-(pyrrolidin-1-yl)thieno[3,2-d]pyrimidin-1-ium) bromide] | 13.7 | – | fold decrease in antimalarial activity with respect to the reference compounds BR-23 / BR-25 [1]: 10 fold |
| 321 to 323 | [Br-].[Br-].c1cc2c(s1)c(N1CCCCCC1)nc[n+]2Cc1ccc(CCc2ccc(C[n+]3cnc(N4CCCCCC4)c4sccc43)cc2)cc1 [Fa-23, 1,1’-((ethane-1,2-diylbis(4,1-phenylene))bis(methylene))bis(4-(azepan-1-yl)thieno[3,2-d]pyrimidin-1-ium) bromide] | 67.8 | – | – |
| – | c1cc2c(s1)c(N1CCCCC1)nc[n+]2Cc1ccc(-c2ccc(C[n+]3cnc(N4CCCCC4)c4sccc43)cc2)cc1 [Fa-24, 1,1’-([1,1’-biphenyl]-4,4’-diylbis(methylene))bis(4-(piperidin-1-yl)thieno[3,2-d]pyrimidin-1-ium) bromide] | 57.8 | 57.1 ± 5.15 | – |
| 314 to 316 | [Br-].[Br-].c1cc2c(s1)c(N1CCCCC1)nc[n+]2Cc1ccc(CCc2ccc(C[n+]3cnc(N4CCCCC4)c4sccc43)cc2)cc1 [Fa-25, 1,1’-((ethane-1,2-diylbis(4,1-phenylene))bis(methylene))bis(4-(piperidin-1-yl)thieno[3,2-d]pyrimidin-1-ium) bromide] | 34.7 | – | – |
| – | [Br-].[Br-].c1cc2c(s1)c(N1CCCC1)cc[n+]2Cc1ccc(CCCCc2ccc(C[n+]3ccc(N4CCCC4)c4sccc43)cc2)cc1 [Ff-1, 4,4’-((butane-1,4-diylbis(4,1-phenylene))bis(methylene))bis(7-(pyrrolidin-1-yl)thieno[3,2-b]pyridin-4-ium) bromide] | 90.1 | 47 ± 3.53 | fold decrease in antimalarial activity with respect to the reference compounds BR-23 / BR-25 [1]: 10 fold; IC50 [2]: 10900 ± 1330 nM |
| 288 to 290 | [Br-].[Br-].c1cc2c(N3CCCC3)nc[n+](Cc3ccc(CCCCc4ccc(C[n+]5cnc(N6CCCC6)c6ccsc65)cc4)cc3)c2s1 [Ff-3, 1,1’-((butane-1,4-diylbis(4,1-phenylene))bis(methylene))bis(4-(pyrrolidin-1-yl)thieno[2,3-d]pyrimidin-1-ium) bromide] | 38.8 | – | fold decrease in antimalarial activity with respect to the reference compounds BR-23 / BR-25 [1]: 10 fold |
| – | c1cc2c(s1)c(N1CCCCCC1)nc[n+]2Cc1ccc(OCCOc2ccc(C[n+]3cnc(N4CCCCCC4)c4sccc43)cc2)cc1 [Ff-34, 1,1′-(((ethane-1,2-diylbis(oxy))bis(4,1-phenylene))bis(methylene))bis(4-(azepan-1-yl)thieno[3,2-d]pyrimidin-1-ium) bromide] | 87.9 | 52.2 ± 12.4 | remaining activity at 25 µM ([2]; read-out: residual enzyme activity): 52.2% |
| – | c1cc2c(s1)c(N1CCCCCC1)cc[n+]2Cc1ccc(-c2ccc(C[n+]3ccc(N4CCCCCC4)c4sccc43)cc2)cc1 [Fg-10, 1,1’-([1,1’-biphenyl]-4,4’-diylbis(methylene))bis(7-(azepan-1-yl)thieno[3,2-b]pyridin-4-ium) bromide] | 53 | 44.7 ± 8.55 | – |
| – | c1cc2c(s1)c(N1CCCC1)cc[n+]2Cc1ccc(-c2ccc(C[n+]3ccc(N4CCCC4)c4sccc43)cn2)nc1 [Fg-12, 4,4’-([2,2’-bipypidine]-5,5’-diylbis(methylene))bis(7-(pyrrolidin-1-yl)thieno[3,2-b]pyridin-4-ium bromide)] | – | – | IC50 [1]: 305 nM |
| 300 to 302 | [Br-].[Br-].c1cc2c(N3CCCC3)nc[n+](Cc3ccc(-c4ccc(C[n+]5cnc(N6CCCC6)c6ccsc65)cc4)cc3)c2s1 [Fg-14, 1,1’-([1,1’-biphenyl]-4,4’-diylbis(methylene))bis(4-(pyrrolidin-1-yl)thieno[2,3-d]pyrimidin-1-ium) bromide] | 20.6 | – | fold decrease in antimalarial activity with respect to the reference compounds BR-23 / BR-25 [1]: 10 fold |
| – | c1cc2c(N3CCCCC3)nc[n+](Cc3ccc(-c4ccc(C[n+]5cnc(N6CCCCC6)c6ccsc65)cc4)cc3)c2s1 [Fg-30, 1,1’-([1,1’-biphenyl]-4,4’-diylbis(methylene))bis(4-(piperidin-1-yl)thieno[2,3-d]pyrimidin-1-ium) bromide] | 27.9 | 54.8 ± 7.2 | – |
| – | CN(c1ccccc1)c1nc[n+](Cc2ccc(-c3ccc(C[n+]4cnc(N(C)c5ccccc5)c5sccc54)cc3)cc2)c2ccsc12.[Br-].[Br-] [Fp-1, 1,1’-([1,1’-biphenyl]-4,4’-diylbis(methylene))bis(4-(methyl(phenyl)amino)thieno[3,2-d]pyrimidin-1-ium)bromide] | 142 | 12.9 ± 3.32 | fold decrease of antimalarial activity with respect to RSM932A [1]: up to 10 fold; fold decrease in parasite lethality with respect to BR-31 [1]: 10 fold; IC50 [2]: 7270 ± 230 nM |
| – | CN(c1ccc(Cl)cc1)c1nc[n+](Cc2ccc(-c3ccc(C[n+]4cnc(N(C)c5ccc(Cl)cc5)c5ccsc54)cc3)cc2)c2sccc12.[Br-].[Br-] [Fp-8, 1,1’-([1,1’-biphenyl]-4,4’-diylbis(methylene))bis(4-((4-chlorophenyl)(methyl)amino)thieno[2,3-d]pyrimidin-1-ium) bromide] | 282 | 8.1 ± 5.8 | fold decrease of antimalarial activity with respect to RSM932A [1]: up to 10 fold; fold decrease in parasite lethality with respect to BR-31 [1]: 10 fold; IC50 [2]: 4170 ± 480 nM |

| Structure (SMILES) | melting point [°C] | IC50 [1, 3] [nM] | remaining activity at 25 µM [2, 4] [%] | further results |
| --- | --- | --- | --- | --- |
| c1cc2c(s1)c(N1CCCCCC1)cc[n+]2Cc1ccc(-c2ccc(C[n+]3ccc(N4CCCCCC4)c4sccc43)cc2)cc1 (as salt: bromide) [Fg-10, 1,1’-([1,1’-biphenyl]-4,4’-diylbis(methylene))bis(7-(azepan-1-yl)thieno[3,2-b]pyridin-4-ium) bromide] | 220 to 222 | – | – | – |
